In PubChem BioAssay AID1996:
≈ marks a conversion by molar mass, not a printed value.

Conditions: buffer; pH 7.4; 200.0 µM

SMILES	solubility kinetic
COc1ccc(Cl)cc1/C=C/c1ccc2cccc(O)c2n1	0.8 µg/mL (≈ 2.57 µM)
Fc1ccc(OCCn2cnc(Cl)c2Cl)cc1	29.7 µg/mL (≈ 108 µM)
CC1CCCN(S(=O)(=O)c2cc3c4c(c2)CCN4C(=O)CC3)C1 (centres undefined)	> 50.2 µg/mL
COc1cccc2c1O/C(=N\O)C(C(=O)Nc1ccc(C)cc1)C2 (centres undefined)	45.7 µg/mL (≈ 140 µM)
COc1ccc(-c2cc(C(=O)N(C)Cc3nc4ccccc4c(=O)[nH]3)c3ccccc3n2)cc1OC	13.2 µg/mL (≈ 27.5 µM)
CC(NC(=O)CCC(=O)NCc1ccc(F)cc1)c1ccccc1 (centres undefined)	> 49.3 µg/mL
Cc1ccc(N2C(=O)c3ccccc3C2C(=O)c2ccc(C)c(C)c2O)cc1 (centres undefined)	10.6 µg/mL (≈ 28.5 µM)
Cc1nc([N+](=O)[O-])cn1CCC#N	> 27 µg/mL
CCCC[N+]1(C)[C@@H]2CC(OC(=O)[C@H](CO)c3ccccc3)C[C@H]1[C@@H]1O[C@@H]12.[Br-] (some centres undefined)	> 66.1 µg/mL
CN(C)CCNC(=O)Nc1ccc([N+](=O)[O-])cc1	> 37.8 µg/mL
O=C(COc1ccc2ccccc2c1)Nc1cccnc1Cl	< 0.3 µg/mL
O=C1CCc2cc(S(=O)(=O)Nc3ccc(F)cc3)ccc2N1	> 48.1 µg/mL
O=S(=O)(c1ccccc1)c1nc(-c2ccccc2)oc1N1CCOCC1	1.2 µg/mL (≈ 3.24 µM)
CNc1nc(-c2ccc3c(c2)CCN3C(=O)CC(C)(C)C)c(C)s1	17.5 µg/mL (≈ 50.9 µM)
CCC(c1ccc(C)cc1)N1C(=O)C2C3CCC(O3)C2C1=O (centres undefined)	41.1 µg/mL (≈ 137 µM)
CC1CCN(C(=O)CCNC(=O)c2ccccc2)CC1	37.1 µg/mL (≈ 135 µM)
Oc1c(Cl)cc(Cl)cc1CNc1nccs1	2.9 µg/mL (≈ 10.5 µM)
O=C(CCCOc1ccc(Cl)cc1Cl)Nc1ncccn1	7.7 µg/mL (≈ 23.6 µM)
COC(=O)c1csc(S(=O)(=O)N2CCOCC2)c1OC	> 48.2 µg/mL
COc1ccc2nc(SCC(=O)NC3CCCCC3)[nH]c2c1	> 47.9 µg/mL
COc1ccc(C2c3ccsc3CCN2C(=O)C(C)(C)C)cc1 (centres undefined)	14.9 µg/mL (≈ 45.2 µM)
CC1(c2ccccc2)NC(=O)N(CC#N)C1=O (centres undefined)	34.3 µg/mL (≈ 150 µM)
O=C(CSc1nccc(=O)[nH]1)NCc1ccc2c(c1)OCO2	> 47.9 µg/mL

SMILES	solubility kinetic
CCC1C(C#N)=C(SCC(N)=O)NC2=C1C(=O)CC(C)(C)C2 (centres undefined)	46.9 µg/mL (≈ 147 µM)
CCN1C(=O)c2cccc3c(Cl)ccc1c23	7 µg/mL (≈ 30.2 µM)
CC(=O)/C=C/c1ccccc1Oc1c(F)c(F)nc(F)c1F	17.8 µg/mL (≈ 57.2 µM)
O=C(O)C1CC=C(Cl)CC1C(=O)NC1CCCCC1 (centres undefined)	> 42.9 µg/mL
Cc1cc(N2CCNCC2)nc2ccccc12	33.3 µg/mL (≈ 146 µM)
COc1cc2c(cc1OC)-c1cc(Nc3ccc(C)cc3)nc(=O)n1CC2	1.9 µg/mL (≈ 5.23 µM)
O=C(NC1CC1)c1ccc(CSCc2ccccc2Cl)o1	> 48.3 µg/mL
C=CCNC(=O)c1ccc(CSc2nc3ccccc3s2)cc1	8.2 µg/mL (≈ 24.1 µM)
CC(=O)c1sc(NC(=O)COc2ccc(Cl)cc2Cl)nc1C	< 0.4 µg/mL
Cc1cccc(NC(=O)Nc2ccc([N+](=O)[O-])cc2)n1	< 0.1 µg/mL
Cc1cc(C)cc(N2C(=O)CN(Cc3ccccc3)C2=S)c1	4.1 µg/mL (≈ 13.2 µM)
CCC(=O)NC1CC2CCCC(C1)N2Cc1ccc(C)cc1 (centres undefined)	> 45.1 µg/mL
CC(C)c1ccc(N2C(=O)C(Cl)=C(N3CCOCC3)C2=O)cc1	9.2 µg/mL (≈ 27.5 µM)
CCOC(=O)CNC(=O)CSc1nc(-c2cccc(C)c2)ns1	40.9 µg/mL (≈ 116 µM)
Cc1sc2c(c1C)C(=O)/C(=C\Nc1ccccn1)S(=O)(=O)N2C	< 0.2 µg/mL
Cc1ccc2ncnc(Oc3ncccc3NC(=O)C(C)(C)C)c2c1	> 50.5 µg/mL
CCOc1ccc(N2CC(C(=O)Nc3ccncc3)CC2=O)cc1 (centres undefined)	> 48.8 µg/mL
COc1ccccc1CNC(=O)c1[nH]c(C)c(C(C)=O)c1C	13.3 µg/mL (≈ 44.3 µM)
Cc1ccc(NC(=S)N2CCCCCC2)cc1	> 37.3 µg/mL
CC(=O)N1CCC(O)(c2ccc3c(c2)OCO3)CC1	37.1 µg/mL (≈ 141 µM)
CN1C/C(=C/c2cccs2)C(=O)/C(=C\c2cccs2)C1	24.6 µg/mL (≈ 81.6 µM)
CC(C)NS(=O)(=O)c1ccc(NC(=O)Cc2ccsc2)cc1	> 50.8 µg/mL

Continued, values first:

solubility kinetic	SMILES
29.5 µg/mL (≈ 98.3 µM)	O=C(O)c1ccccc1Nc1ccc([N+](=O)[O-])c2nonc12
> 43.7 µg/mL	CCC1CCCCN1C(=O)COc1ccc2c(c1)OCO2 (centres undefined)
< 0.6 µg/mL	COC(=O)c1cc(C)sc1NC(=O)c1ccco1
> 35.4 µg/mL	CC(=O)N=c1sc(S(N)(=O)=O)nn1C
16.2 µg/mL (≈ 31.3 µM)	Cc1cc(OCC(=O)OCC(=O)Nc2cc(S(=O)(=O)N3CCOCC3)ccc2Cl)ccc1Cl
> 27.8 µg/mL	Cc1ccc2cc3c(nc2c1)OCC3
> 67.2 µg/mL	COc1ccc(CCNC(=O)COC(=O)c2ncc(Cl)c(Cl)c2Cl)cc1OC
1.5 µg/mL (≈ 4.11 µM)	S=C(Nc1ccc(Br)cc1)Nc1ccc2c(c1)OCCO2
> 44 µg/mL	CC(=O)OC(C(=O)NC1CCCCC1)c1cccc(F)c1 (centres undefined)
6.8 µg/mL (≈ 23.1 µM)	O=[N+]([O-])c1ccc2c(c1)nc1n2CCN(c2ccccc2)C1
> 46.8 µg/mL	COc1ccc(C(=O)NCC(=O)N/N=C/c2cccnc2)cc1
> 60.4 µg/mL	CS(=O)(=O)N1Cc2ccccc2CC1C(=O)OCC(=O)NCc1ccccc1 (centres undefined)
> 41.9 µg/mL	Cc1cc(C)cc(NS(=O)(=O)c2ccc(F)cc2)c1
1.6 µg/mL (≈ 5.12 µM)	O=C(NCc1ccc(Cl)cc1)c1cc(=O)[nH]c2ccccc12
40.3 µg/mL (≈ 114 µM)	COc1ccccc1Oc1ccc2c(c1)C(=O)N(CC1CCCO1)C2=O (centres undefined)
8.7 µg/mL (≈ 27.1 µM)	Cn1c(S(=O)(=O)Cc2ccc(Cl)cc2)nc2ccccc21
> 42.2 µg/mL	NC(=NC1CCCCC1)NS(=O)(=O)c1ccccc1
> 36 µg/mL	COC(=O)CNC(=O)CSc1ccccn1
> 51.8 µg/mL	CCOC(=O)C1CCN(C(=O)COC(=O)/C=C/c2ccccc2)CC1
19.4 µg/mL (≈ 56.3 µM)	Cc1cccc(C)c1OCc1cc(C(=O)NC2CCC(O)CC2)no1 (centres undefined)

solubility kinetic	SMILES
4.1 µg/mL (≈ 8.39 µM)	COc1ccc(S(=O)(=O)N2CCOCC2)cc1NC(=O)COc1ccc2c(C)cc(=O)oc2c1
> 53.5 µg/mL	COc1ccc(S(=O)(=O)NCCC(=O)OCC(=O)NC2CC2)cc1
13.3 µg/mL (≈ 43.8 µM)	CCOc1ccc(OCc2ccc(C(=O)NC(C)C)o2)cc1
> 44.5 µg/mL	Cn1c(SCC(=O)O)nc2sc3c(c2c1=O)CCC3
1.3 µg/mL (≈ 4.61 µM)	Nc1c(C(=O)c2ccccc2)oc2ccc([N+](=O)[O-])cc12
42.7 µg/mL (≈ 117 µM)	CCN(C(=O)Cc1c(C(=O)O)n(CC)c2ccccc12)c1ccccc1C
8.1 µg/mL (≈ 24.8 µM)	C/C(=N/OC(=O)c1ccc(C(F)(F)F)cc1)c1oc(C)nc1C
> 41.3 µg/mL	NC(=Nc1ccc(Br)cc1)c1ccccc1
13.3 µg/mL (≈ 54.5 µM)	CC(=O)c1ccc(NC(=O)c2cc(C)no2)cc1
47.1 µg/mL (≈ 144 µM)	Cc1sc2ncnc(NCC(c3ccccc3)N(C)C)c2c1C (centres undefined)
> 43.4 µg/mL	Cc1cccc(NC(=O)COC(=O)CC2CCCC2)c1C
> 46.4 µg/mL	CC(OC(=O)COc1ccc(C#N)cc1)C(=O)c1ccccc1 (centres undefined)
> 51.4 µg/mL	C=C(C)CN(CC)Cc1c(C(=O)N(C)CCCC)nc2ccccn12
< 0.4 µg/mL	Cc1ccc(N2CCN(S(=O)(=O)c3ccc(C)cc3)CC2)cc1
> 36.9 µg/mL	O=C(Cc1ccccc1)NCC(=O)N1CCCC1
40.5 µg/mL (≈ 120 µM)	COc1ccc(C(=O)N2CCCC(Nc3ccc(C)c(C)c3)C2)cc1 (centres undefined)
3 µg/mL (≈ 8.44 µM)	CC(C)(C)NS(=O)(=O)c1ccc(NC(=S)NC(=O)C2CC2)cc1
> 47.2 µg/mL	Cc1ccccc1-c1nnc(CS(=O)(=O)c2ccccc2)o1
31.2 µg/mL (≈ 102 µM)	CCC(C)c1ccc(NC(=S)NC(C)C2CCCO2)cc1 (centres undefined)
